From patent US20030236288A1, “Use of substituted 3-phenyl-5-alkoxy-3H-(1,3,4)-oxadizol-2-ones for inhibiting pancreatic lipase” (priority 2002, published 2003) come the findings set out here.

The structures appear in SMILES notation.

System in one data set: not given
Assay: not given
Conditions: not given
For `COc1nn(-c2ccc(Oc3ccccc3)cc2)c(=O)o1`, the melting point was 83 °C. Still for that read-out and setting: the figure for `COc1nn(-c2ccc(NC(=O)c3ccc(Cl)cc3)c(OCc3ccc(F)cc3)c2)c(=O)o1` [Example 46, 5-Methoxy-3-(4-(4-chlorobenzoylamino)-3-(4-fluorobenzyloxy)phenyl)-3H-(1,3,4)-oxadiazol-2-one] is 167 °C. Compound `COc1nn(-c2cccc(NC(=O)Nc3ccccn3)c2)c(=O)o1` [Example 59, 5-Methoxy-3-(3-(pyrid-2-yl)aminocarbonylaminophenyl)-3H-(1,3,4)-oxadiazol-2-one] gave a melting point of 81 °C. `COc1nn(-c2ccc(S(=O)(=O)N3CCOCC3)cc2)c(=O)o1` [Example 208, 3-(4-Morpholinosulfonylphenyl)-5-methoxy-3H-(1,3,4)-oxadiazol-2-one] yielded a melting point of 164 °C. Regarding `COc1nn(-c2ccc(OC(F)(F)F)cc2)c(=O)o1` [Example 209, 3-(4-Trifluoromethoxyphenyl)-5-methoxy-3H-(1,3,4)-oxad iazol-2-one], the melting point turned out to be 52 °C. Same read-out and setting: next, `CCOc1nn(-c2ccc(OC(F)(F)F)cc2)c(=O)o1` [Example 210, 3-(4-Trifluoromethoxyphenyl)-5-ethoxy-3H-(1,3,4)-oxad iazol-2-one]: 63 °C; `COc1nn(-c2ccc(S(=O)(=O)NC3CC(C)CC(C)(C)C3)cc2)c(=O)o1` (centres unmarked) [Example 214, 3-(4-(3,3,5-Trimethylcyclohexylaminosulfonyl)phenyl)-5-methoxy-3H-(1,3,4)-oxadiazol-2-one]: 164 °C.

With `CCOc1nn(-c2ccc(OC3CC(C)(C)CC(C)(C)C3)cc2)c(=O)o1` [Example 215, 3-(4-(3,3,5,5-Tetramethylcyclohexyloxy)phenyl)-5-ethoxy-3H-(1,3,4)-oxad iazol-2-one], the melting point was 111 °C. `COc1nn(-c2ccc(Oc3ccc(Cl)cc3)cc2)c(=O)o1` [Example 229, 3-(4-(4-Chlorophenoxy)phenyl)-5-methoxy-3H-(1,3,4)-oxad iazol-2-one] returned a melting point of 68 °C. The compound `COc1nn(-c2cccc(Oc3ccccc3)c2)c(=O)o1` [Example 232, 3-(3-Phenoxyphenyl)-5-methoxy-3H-(1,3,4)-oxad iazol-2-one] had a melting point of 89 °C. Turning to `CCOc1nn(-c2cccc(Oc3ccccc3)c2)c(=O)o1` [Example 233, 3-(3-Phenoxyphenyl)-5-ethoxy-3H-(1,3,4)-oxadiazol-2-one], the melting point was 50 °C. With `COc1nn(-c2cccc(OC3CC(C)(C)CC(C)(C)C3)c2)c(=O)o1` [Example 237, 3-(3-(3,3,5,5-Tetramethylcyclohexyloxy)phenyl)-5-methoxy-3H-(1,3,4)-oxadiazol-2-one], the melting point worked out at 68 °C. Regarding `COc1nn(-c2ccc(-c3ccccc3)cc2)c(=O)o1` [Example 238, 3-(4-Phenylphenyl)-5-methoxy-3H-(1,3,4)-oxadiazol-2-one], the melting point is > 260 °C (dec.). Compound `COc1nn(-c2cccc(COc3cccc(C)c3)c2)c(=O)o1` [Example 239, 3-(3-(3-Methylphenoxymethyl)phenyl)-5-methoxy-3H-(1,3,4)-oxadiazol-2-one] gave a melting point of 47 °C. Take `COc1nn(-c2cccc(-c3ccccc3)c2)c(=O)o1` [Example 240, 3-(3-Phenylphenyl)-5-methoxy-3H-(1,3,4)-oxadiazol-2-one]: the melting point was 80 °C.

The target of another data set is T1, pancreatic lipase (PL) (Sus scrofa, UniProt P00591).
T1 construct: Enriched preparation from porcine pancreas; purchased Sigma L-0382; host or cells: porcine pancreas (tissue preparation)
T1 sequence (P00591 1-450): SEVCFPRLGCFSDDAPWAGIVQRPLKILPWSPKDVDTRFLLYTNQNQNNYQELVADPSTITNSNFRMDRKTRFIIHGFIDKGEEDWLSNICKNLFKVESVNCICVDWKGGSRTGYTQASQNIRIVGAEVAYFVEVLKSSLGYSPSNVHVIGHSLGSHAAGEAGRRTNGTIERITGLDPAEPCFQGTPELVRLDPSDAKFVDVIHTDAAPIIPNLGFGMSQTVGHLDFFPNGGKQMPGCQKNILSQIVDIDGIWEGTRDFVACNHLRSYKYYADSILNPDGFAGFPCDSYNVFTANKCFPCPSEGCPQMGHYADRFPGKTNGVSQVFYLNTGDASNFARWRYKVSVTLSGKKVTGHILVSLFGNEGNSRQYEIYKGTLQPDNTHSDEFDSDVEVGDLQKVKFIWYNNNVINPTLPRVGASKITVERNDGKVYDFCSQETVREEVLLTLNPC
The experiment in a line: Pancreatic lipase inhibition assay (release of radiolabeled oleate from glycerol tri[9,10(n)-3H]oleate/tripalmitin substrate). Type of data set: biochemical. The note with it: enriched lipase preparation from porcine pancreas; 30° C., 30 min; up to 8 concentrations. The procedure: The activity of the compounds was assayed as follows:
1. Preparation of the substrate:
80 μL of tripalmitin (85 mM in chloroform) are mixed with 5 μL of glycerol tri[9,10(n)-^3H]oleate (5 mCi/mL in toluene) in a 12 mL polypropylene vessel. Evaporation in a rotary evaporator (50° C.) and addition of 4 mL of 200 mM Tris/HCl (pH 7.6), 0.8% TX-100 are followed by ultrasound treatment of the mixture (Branson B-12 sonifier, output level 4, 3×2 min with 1 min intervals on ice) until a homogeneous milky suspension is produced.
Lipase buffer: 80 mM Tris/HCl (pH 7.6), 600 mM NaCl, 8 mM CaCl2, 8 mM benzamidine, 2 mM Pefabloc (Roche Biochemicals) (add the inhibitors only on the day of the assay)
Pancreatic lipase: Enriched preparation from porcine pancreas (Sigma order No. L-0382) dissolved in lipase buffer (100 000 units/500 μL)
5 μL of test substance (in 100% DMSO) or DMSO (control) are mixed with 10 μL of substrate and 5 μL of lipase (in this sequence) and incubated at 30° C. (Eppendorf Thermomixer, 350 min^−1) for 30 min. After addition of 325 μL of methanol/chloroform/n-heptane (10/9/7) and 105 μl of 0.1 M K2CO3, 0.1 M H3BO3 (pH 10.5 adjusted with 1 M KOH) and vigorous mixing, the phases are separated by centrifugation (8000 rpm, Eppendorf centrifuge, 4° C.). 140 μL portions of the aqueous supernatant (contains the liberated radiolabeled oleate; 70% recovery) are transferred into 20 mL scintillation vials and mixed with 6 mL of scintillation cocktail (Beckman Ready Safe). After vigorously mixing and incubating at room temperature for 2 h, the radioactivity is measured in a liquid scintillation counter (Beckman, L8008, tritium channel with quench curve, measurement time 20 min).
Substances are routinely tested in each concentration in three independent incubation mixtures each with duplicate determination after phase separation (SD<0.02). Background values (reaction under the same conditions but without lipase) are subtracted from all values (corresponds predominantly to the content of glycerol trioleate or free oleate in the substrate preparation in the aqueous phase, <5% of the radioactivity employed). The inhibition of the pancreatic lipase enzymatic activity by a test substance is determined by comparison with an uninhibited control reaction (presence of lipase=0% inhibition; absence of lipase 100% inhibition in each case after background correction). The IC50 is calculated from an inhibition plot with up to 8 concentrations of the test substance. The software package GRAPHIT (Elsevier-BIOSOFT) is used for curve fitting and IC50 determination.
In turn, `COc1nn(-c2ccc(NC(=O)c3ccc(C(F)(F)F)cc3)c(OCc3ccccc3)c2)c(=O)o1` [Example 86, 5-Methoxy-3-(3-benzyloxy-4-(4-trifluoromethylbenzoylamino)phenyl)-3H-(1,3,4)-oxadiazol-2-one] showed an IC50 of 1500 nM. The compound `CCOc1nn(-c2ccc(OC(F)(F)F)cc2)c(=O)o1` [Example 210, 3-(4-Trifluoromethoxyphenyl)-5-ethoxy-3H-(1,3,4)-oxad iazol-2-one] came in with an IC50 of 700 nM. On the same count and under the same terms, the figure for `CCCCOc1nn(-c2ccc(OC(F)(F)F)cc2)c(=O)o1` [Example 212, 3-(4-Trifluoromethoxyphenyl)-5-butoxy-3H-(1,3,4)-oxadiazol-2-one] is 500 nM; for `O=c1oc(OCc2ccccc2)nn1-c1ccc(OC(F)(F)F)cc1` [Example 213, 3-(4-Trifluoromethoxyphenyl)-5-benzyloxy-3H-(1,3,4)-oxad iazol-2-one] it is 500 nM; for `COc1nn(-c2cccc(OCc3ccccc3)c2)c(=O)o1` [Example 216, 3-(3-Benzyloxyphenyl)-5-methoxy-3H-(1,3,4)-oxadiazol-2-one] it is 800 nM.

Turning to `CCOc1nn(-c2cccc(OC(F)(F)F)c2)c(=O)o1` [Example 218, 3-(3-Trifluoromethoxyphenyl)-5-ethoxy-3H-(1,3,4)-oxad iazol-2-one], the IC50 was 700 nM. In turn, `CC(C)Oc1nn(-c2cccc(OC(F)(F)F)c2)c(=O)o1` [Example 220, 3-(3-Trifluoromethoxyphenyl)-5-isopropoxy-3H-(1,3,4)-oxadiazol-2-one] gave an IC50 of 1800 nM.

In turn, `COc1nn(-c2ccc(Oc3ccc(Cl)cc3)cc2)c(=O)o1` [Example 229, 3-(4-(4-Chlorophenoxy)phenyl)-5-methoxy-3H-(1,3,4)-oxad iazol-2-one] gave an IC50 of 600 nM.
